Experimental data as given in the NIST ThermoML archive (doi:10.1007/s10765-010-0725-9).
Values joined by “and” are separate entries in the source; they are usually repeats but may differ in a detail not shown here. Equal values may be shown once.

Assays:
[1] = wn = mass fraction of the nth substance listed; conditions: Pendant drop shape
[2] = Pendant drop shape

[Ca+2].[Cl-].[Cl-] [calcium chloride] + O
surface tension liquid-gas [mN/m], [1]
Conditions	303.15 K	313.15 K	323.15 K	333.15 K
w1 = 0.04	72.74	70.84	69.62	67.62
w1 = 0.1	74.59	72.56	70.38	68.56
w1 = 0.14	76.08	73.65	71.52	70.63
w1 = 0.18	77.53	74.89	73.25	71.87

[Cl-].[K+] [potassium chloride] + O
surface tension liquid-gas [mN/m], [1]
Conditions	303.15 K	313.15 K	323.15 K	333.15 K
w1 = 0.1	71.58	69.86	67.57	66.39
w1 = 0.14	72.12	70.64	69.15	66.16
w1 = 0.18	76.78	75.23	74.65	71.44

[Cl-].[Na+] [sodium chloride] + O
surface tension liquid-gas [mN/m], [1]
Conditions	303.15 K	313.15 K	323.15 K	333.15 K
w1 = 0.04	71.44	70.66	68.25	67.31
w1 = 0.1	73.42	71.81	70.97	69.74
w1 = 0.14	76.09	74.6	72.47	71.83
w1 = 0.18	77.04	74.73	73.38	71.44

O=S(=O)([O-])[O-].[Na+].[Na+] [sodium sulfate] + O
surface tension liquid-gas [mN/m], [1]
Conditions	303.15 K	313.15 K	323.15 K	333.15 K
w1 = 0.04	71.53	70.7	68.8	67.27
w1 = 0.1	73.56	71.88	70.5	69.11
w1 = 0.14	74.02	72.82	71.65	69.93
w1 = 0.18	76.28	74.97	73.22	71.4

O [water]
[2]
Conditions	surface tension liquid-gas
303.15 K	71.54 mN/m and 72.12 mN/m and 71.58 mN/m
313.15 K	70.64 mN/m and 68.96 mN/m and 69.86 mN/m
323.15 K	69.15 mN/m and 67.83 mN/m and 67.57 mN/m
333.15 K	66.16 mN/m and 66.39 mN/m
343.15 K	65.39 mN/m and 65.8 mN/m and 64.73 mN/m
